Assay results published in patent US20020183937A1, “Method for the generation of proteins with new enzymatic function” (priority 2001, published 2002).
Values belong to the compound of their own block, whether it stands above or below them.

Experiments:
[1] = Burst phase PNPA hydrolysis assay at high substrate concentration; details: 1.6 mM PNPA, 4 μM protein (FIG. 7)
Protocol: PZD2 was dialyzed extensively against 10 mM sodium phosphate buffer at pH 6.95. Kinetic experiments at 22° C. were started by the addition of substrate dissolved in acetonitrile to buffer solution with and without PZD2 (final protein concentration of 4 μM). Protein concentration was determined by UV absorbance in 6M guanidinium hydrochloride assuming an extinction coefficient of 12400 M^−1cm^−1 at 280 nm. Product concentration was determined by the change in absorbance at 400.5 nm assuming an extinction coefficient for deprotonated PNP of 19700 M^31 1cm^−1. Final acetronitrile concentration was 1% for all experiments. The steady state rate of hydrolysis by PZD2 was corrected for the buffer rate. Burst phase hydrolysis assays were performed at a substrate concentration of 1.6 mM. Protein concentration was 4 μM, with the exception of wild type thioredoxin. Wild type thioredoxin was assayed at 50 μM to improve signal to noise and extrapolated to a protein concentration of 4 μM. The dead time for this experiment was approximately 30 seconds.

[2] = Steady state kinetics of PNPA hydrolysis by protozymes; type: biochemical; details: qualitative statement
PZD2 = target: T1, PZD2 (Escherichia coli, UniProt P0AA25, D27I/F13A/L18H/Y71A); experiment: Inhibition of PZD2 catalyzed PNPA hydrolysis; type: biochemical, E. coli
T1 construct: made in house; host or cells: E. coli BL21 (DE3), vector pET-11a
T1 sequence (P0AA25 2-109 F13A/L18H/D27I/Y71A): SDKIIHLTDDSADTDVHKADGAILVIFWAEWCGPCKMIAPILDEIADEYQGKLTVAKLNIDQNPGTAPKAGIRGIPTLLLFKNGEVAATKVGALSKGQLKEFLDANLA
Text: With this in mind, we assayed the inhibitory effects of p-nitrophenol glycerol (PNPG), a highly soluble compound with structural similarity to PNPA.

enzyme-like activity toward PNPA hydrolysis [2]: essentially catalytically inert
enzyme-like activity toward PNPA hydrolysis ([2]; listed as wild type protein): does not exhibit enzyme-like activity
Compound: Wild type thioredoxin: thioredoxin protein from E. coli, scaffold; wild type sequence, H at position 6 with no binding site mutations
catalytic activity (PNPA hydrolysis) [1]: essentially inactive

Compound: p-nitrophenol glycerol [PNPG]
Ki (PZD2; fixed substrate concentration, read-out: K1 (Dixon analysis of inhibition)): 20 mM
mode of inhibition (double reciprocal analysis) (PZD2; presence and absence of inhibitor, 10 mM PNPG (FIG. 9)): competitive inhibition

Compound: O=[N+]([O-])c1ccc(OP(=O)(O)O)cc1 [p-nitrophenyl phosphate]
inhibition (PZD2; concentrations up to 20 mM): did not show detectable inhibition
